“Also recorded” adds a separate entry of the source.
Tests used:
[1] = tested on: STEAP3 mRNA expression in KG1a cells; assay: qPCR of SPINK2 target gene STEAP3 after SMI treatment, KG1a; type: cell-based
Method: (§1) The SMI is initially tested with increasing doses for its effect upon cell viability in KG1a cells. […] This dose is then tested on GDM1, MOLM13 and OCIAML3 cells.
(§2) Cells are seeded into 96-well plates at a density of approximately 2×10^5 cells/ml and drugs are added at indicated concentrations. Cell viability is measured at indicated time points using Cell Titer-GLO® Luminescent Cell Viability Assay. For assessment of gene expression after drug treatment, cells are seeded in 6-well plates at approximately 4×10^5 cells/ml and drugs are added at indicated doses. RNA and/or protein is extracted 72 hours later. qPCR and Western Blot are then performed according to standard procedures to detect target gene and protein expression.

[2] = tested on: SPINK2 protein expression in KG1a cells; assay: Western blot of SPINK2 protein after SMI treatment, KG1a; type: cell-based
Method: as §1
(§3) Cells are harvested, washed in Phosphate-buffered saline (PBS) and lysed using Pierce™ IP Lysis Buffer. Protein concentration is measured using Pierce™ BCA Protein Assay Kit. Approximately 30 μg of whole cell lysates are mixed with 4× Laemmli Buffer and β-mercaptoethanol and denatured for 5 minutes at 95° C. Lysates are equally loaded onto and separated using freshly prepared polyacrylamide gels. Proteins are transferred onto 0.2 μm Immun-Blot® PVDF membranes using FLASHBlot transfer buffer. The membranes are then blocked for one hour at room temperature with 5% non-fat dry milk in TBS Tween™ 20 Buffer. This is followed by incubation with primary antibodies diluted in 5% bovine serum albumin (BSA) at 4° C. overnight. Primary antibody dilutions are as follows: SPINK2 (1:1000), ALCAM (1:10000), β-ACTIN (1:10000), GAPDH (1:2500). […]
(§4) Cells are seeded into 96-well plates at a density of approximately 2×10^5 cells/ml and drugs are added at indicated concentrations. Cell viability is measured at indicated time points using Cell Titer-GLO® Luminescent Cell Viability Assay. […]

[3] = Solubility in DMSO and other solvents; type: physicochemical
From the text: In another embodiment, the SMI is screened via a structure-based virtual screening (SBVS) and selected from a group of bioactive molecules due to its efficient binding affinity based on its idock scores and its capacity to dissolve in at least one solvent selected from a group comprising of dimethyl sulfoxide (DMSO), water, ethanol or dimethylformamide (DMF).
To identify potential SPINK2-SMIs, Structure-based Virtual Screening (SBVS) is initially employed for in silico screening of a small-molecule library comprising 1.5 million compounds to identify bioactive molecules that bind to the targeting domain of SPINK2 (FIG. 16A).

GDM1 cells = assay: Cell Titer-GLO cell viability assay, GDM1; type: cell-based; details: GDM1 (SPINK2high), 150 μM for 72 hours
Method: as §1
(§5) Cells are treated with the SMIs and control (DMSO) for 72 hours and their viability is detected using the Cell Titer Glo® assay according to the manufacturer's instructions. Statistical analysis is performed using one-way ANOVA with Tukey's multiple comparisons test with Mean+SD of at least 2 independent experiments.
as §2

KG1a cells = assay: Cell Titer-GLO cell viability assay, KG1a; type: cell-based
Method: as §1, §5, §2

[4] = tested on: SLC7A11 mRNA expression in KG1a cells; assay: qPCR of SPINK2 target gene SLC7A11 after SMI treatment, KG1a; type: cell-based
Method: as §1, §2

[5] = tested on: SPINK2^high cells (KG1a and GDM1) vs. SPINK2^low cells (OCIAML3 and MOLM13); assay: Cytotoxicity compared between SPINK2high and SPINK2low cell lines (Cell Titer Glo); type: cell-based; details: 72 h treatment, compared with SMI-2
Method: as §5, §2

[6] = tested on: SPINK2 protein expression in GDM1 cells; assay: Western blot of SPINK2 protein after SMI treatment, GDM1; type: cell-based
Method: as §1, §3, §4

[7] = tested on: SLC7A11 mRNA expression in MOLM13-EV and MOLM13-SPINK2 cells; assay: qPCR of SLC7A11 after Nutlin-3a in MOLM13-EV and MOLM13-SPINK2 cells; type: cell-based; details: Nutlin-3a 1 μM, 48 hours and 72 hours
Method: Previously, p53 transcriptionally represses SLC7A11 expression, thereby playing an important pro-ferroptotic role. The data has shown that p53 pathway genes are inversely affected upon SPINK2 modulation (Tables S11 & S12). Based on the hypothesis that SPINK2 overexpression in MOLM13 cells might counteract the p53-mediated repression of SLC7A11, MOLM13-EV and MOLM13-SPINK2 cells are treated with the p53 activator, Nutlin-3a (1 μM), for 48 hours and 72 hours. […] Of note, the effects of Nutlin-3a could not be tested in KG1a cells, since they have a TP53 mutation which renders them insensitive to Nutlin-3a activity.
GFP-labelled lentiviruses are used for assessing the biological significance of SPINK2 in AML by overexpressing SPINK2 in OCIAML3 and MOLM13 cells (pRSC—SFFV-SPINK2-E2A-Puro-E2A-GFP-Wpre) and empty vector, EV (pRSC—SFFV-Puro-E2A-GFP-wpre) are provided. Transduction is performed in approximately 2×10^5 cells/ml at a multiplicity of infection (MOI) of 20 using Retronectin®-coated 6-well plates according to the manufacturer's instructions (Takara Bio Inc.) This is followed by puromycin selection (1 μg/ml) for at least seven days. Functional studies are then performed on cells as described and extra cells are cryopreserved.

Row | solubility in DMSO [3] | SMILES | STEAP3 mRNA expression [1] | SPINK2 protein expression [2] | effect on cell viability (GDM1 cells) | cytotoxicity at 150 µM (KG1a cells; Homo sapiens, KG-1a, KG1a cells, 150 μM, 72nd hour, read-out: reduction of cell viability) | effect on cell viability (KG1a cells; KG1a (SPINK2high), 150 μM for 72 hours) | SLC7A11 mRNA expression [4] | toxicity/specificity against SPINK2high vs SPINK2low cells [5] | toxicity/specificity against SPINK2high vs SPINK2low cells ([5]; listed as SMI-5) | SPINK2 protein expression [6] | SLC7A11 mRNA expression [7]
1 | soluble in DMSO | C[C@]12C(=O)N(c3cccc(C(=O)O)c3)C(=O)[C@H]1C1c3ccccc3C2c2ccccc21 [SMI, 3-[(15R,19S)-15-methyl-16,18-dioxo-17-azapentacyclo [6.6.5.02,7.09, 14.015,19]nonadeca-2,4,6,9,11,13-hexaen-17-yl]benzoic acid] | upregulation | decreased | significantly decreased cell viability | ~50% | significantly decreased cell viability | downregulation | selectively decreased viability | greater toxicity; also recorded: greater specificity | decreased | 
2 |  | COc1ccc(C2=N[C@@H](c3ccc(Cl)cc3)[C@@H](c3ccc(Cl)cc3)N2C(=O)N2CCNC(=O)C2)c(OC(C)C)c1 [Nutlin-3a] |  |  |  |  |  |  |  |  |  | reduced in MOLM13-EV cells to a significantly greater extent than in MOLM13-SPINK2 cells

Source: US20250138013A1, “SMALL MOLECULE INHIBITOR TARGETING A LEUKEMIC STEM CELL ASSOCIATED GENE FOR HIGH-RISK AML PATIENTS” (The Chinese University of Hong Kong, priority 2023, published 2025)
